Measurements as given in patent publication US20230019236A1, “PROTEIN TYROSINE PHOSPHATASE INHIBITORS AND METHODS OF USE THEREOF” (Calico Life Sciences LLC, priority 2019, published 2023).
Read-outs that look alike come from different tables or passages of the source.

How the values were obtained:
[1] = tested on: B16F10 mouse melanoma cells; assay: B16F10 IFNγ-induced cellular growth inhibition assay; assay type: cell-based; details: for inhibition at 33 µM: Mus musculus, B16-F10, compound 33 μM, Table 3
Procedure: Example 294: B16F10 IFNγ-Induced Cellular Growth Inhibition Assay
B16F10 mouse melanoma cells (ATCC Cat# CRL-6475, Manassas, Va.) were seeded at a density of 500 cells per well in a 384-well clear bottom plate (Corning Cat#3765, Corning, N.Y.) in 25 μL total volume of DMEM+10% FBS (Sigma Cat# D6429 and Sigma Cat# F4135, St. Louis, MO). Cells were allowed to adhere overnight at 37° C. +5% CO2. On the following day, 12.5 μL of mouse IFNγ (RD systems Cat# 485-MI/CF, Minneapolis, Minn.) was added to half of the plate (columns 13-24) at a concentration of 2 ng/mL for a final assay concentration of 0.5 ng/mL of IFNγ. Media only (12.5 μL of DMEM+10% FBS) was added to the remainder of the plate (columns 1-12). Next, compounds resuspended in DMSO (Sigma Cat# D2650) at 100 mM were diluted in semi-log dilutions in DMSO ranging from 100 mM to 0.001 mM and DMSO only controls were included. The compound/DMSO dilutions were further diluted 1:250 in DMEM+10% FBS, and 12.5 μL of these dilutions were added in triplicates to cells of both treatment arms (with and without IFNγ). Final compound concentrations ranged from 100 μM to 0.001 μM with a final DMSO concentration of 0.1%. Compounds were only dosed in the inner 240 wells, avoiding the outer 2-well perimeter of the plate to minimize edge effects. Finally, the plate was loaded into an IncuCyte® S3 Live Cell Analysis System (Essen Bioscience-Sartorius, Ann Arbor, Mich.) maintained in a 37° C. +5% CO2 incubator, allowed to equilibrate for 2 hours, and imaged every 6 hours for 5 days. Confluence over time for compound dilutions in the presence and absence of IFNγ was measured. Growth inhibition values were obtained when the “DMSO/no IFNγ” control reached confluence >95%. At these time points, the percent growth inhibition of each compound at the indicated concentration was calculated relative to the “DMSO/with IFNγ” control.

[2] = target: T1, His tagged full-length PTP1B protein (Homo sapiens, UniProt P18031); assay: Mobility Shift Assay (MSA) used to determine potency of PTP1B inhibitors; assay type: biochemical; details: Table 2
T1 construct: made in house
T1 sequence (P18031 with tags, fused parts or gaps): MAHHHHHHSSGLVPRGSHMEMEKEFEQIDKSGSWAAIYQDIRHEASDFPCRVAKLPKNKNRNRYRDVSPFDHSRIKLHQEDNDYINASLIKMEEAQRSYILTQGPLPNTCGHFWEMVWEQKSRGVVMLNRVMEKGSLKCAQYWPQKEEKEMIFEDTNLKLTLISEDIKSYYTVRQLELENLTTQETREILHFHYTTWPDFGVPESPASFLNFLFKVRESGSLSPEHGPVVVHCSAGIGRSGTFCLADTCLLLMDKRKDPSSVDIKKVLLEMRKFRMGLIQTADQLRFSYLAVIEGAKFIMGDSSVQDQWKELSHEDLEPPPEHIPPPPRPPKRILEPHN
Procedure: The enzymatic assay used to determine activity is a mobility shift assay using a LabChip EZ Reader by Caliper Life Sciences. The enzymatic reaction was carried out in assay buffer (50 mM HEPES pH 7.5, 1 mM EGTA, 10 mM EDTA, 0.01% Tween® 20, and 2 mM DTT). […] The enzyme (at 0.5 nM) was incubated with compound for 10 minutes at room temperature. […] The % inhibition was then used to calculate the IC50 values.

[3] = target: T2, His tagged PTPN2 (TC45) protein (Homo sapiens, UniProt P17706); assay: Mobility Shift Assay used to determine potency of PTPN2 inhibitors; assay type: biochemical; details: Table 2; read-out: PTPN2 MSA IC50
T2 construct: made in house
T2 sequence (P17706 with tags, fused parts or gaps isoform P17706-2): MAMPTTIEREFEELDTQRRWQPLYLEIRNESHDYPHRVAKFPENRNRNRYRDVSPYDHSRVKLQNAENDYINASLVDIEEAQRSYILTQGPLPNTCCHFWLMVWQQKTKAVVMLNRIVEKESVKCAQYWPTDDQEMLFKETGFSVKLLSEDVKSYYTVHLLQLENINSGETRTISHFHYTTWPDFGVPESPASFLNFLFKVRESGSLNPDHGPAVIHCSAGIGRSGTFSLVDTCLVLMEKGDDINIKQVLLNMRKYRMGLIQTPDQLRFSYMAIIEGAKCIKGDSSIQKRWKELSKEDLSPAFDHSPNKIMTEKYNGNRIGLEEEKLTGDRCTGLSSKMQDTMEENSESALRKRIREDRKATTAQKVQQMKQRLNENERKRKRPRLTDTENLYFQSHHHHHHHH
Outline: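 His-tagged human PTPN2 (TC45), 0.5 nM, preincubated 10 min RT with compound (12-point, 1:3 dilution) in HEPES pH 7.5 buffer with EDTA/DTT; 2 µM OG488-labelled phospho-insulin-receptor peptide added, 10 min RT, then quenched. Dephosphorylation read by microfluidic mobility shift (ex 488/em 530 nm); IC50 from % inhibition.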

[4] = tested on: Pan T cells isolated from C57BL6 splenocytes; assay: T cell activation assay (CD25/CD69 flow cytometry); assay type: cell-based, mouse; details: with TCR stimulation; Table 5
Procedure: Example 295: T cell activation and function assays
Pan T cells were isolated from C57BL6 splenocytes using a MACS Pan T cell isolation kit II (Miltenyi Biotec, Auburn, Calif.) according to the manufacturer's instructions. Isolated T cells (200,000 cells/well in a 96 well flat-bottom plate) were cultured in RPMI 1640 supplemented with 10% FBS, […] 2-mercatoethanol, 100 U/mL penicillin, and 100 μg/mL streptomycin, and incubated with the indicated concentration of compound or DMSO in duplicates. After 1 hour, mouse T cell activator CD3/CD28 Dynabeads (ThermoFisher Scientific, Waltham, Mass.) were added at a 1:5 beads to cells ratio to stimulate the T cells for 2 or 3 days as outlined below. T cells with or without compound were incubated in the absence of T cell activator beads (media only) as control.
After 2 days of stimulation, activation status of T cells was assessed by flow cytometry. T cells were first subjected to Zombie Violet™ Fixable Viability dye (BioLegend, San Diego, Calif.) for dead cell exclusion, washed and then stained with BUV805 labeled anti-CD8, APC-R700 labeled anti-CD25 (both from BD Biosciences, San Jose, Calif.) and PE labeled anti-CD69 (BioLegend, San Diego, Calif.) antibodies. After staining, cells were fixed with 2% paraformaldehyde and acquired on a BD LSRFortessa™ X-20 flow cytometer (BD Biosciences, San Jose, Calif.) using BD FACSDiva™ software. Data was analyzed using FlowJo V10 (Flow Jo LLC, Ashland, OR). Dead cells were excluded and frequencies of activated CD8 T cells was reported as the frequency of CD25+ or CD69+ cells within the CD8+ population. The expression level of CD25 and CD69 indicates the activation status of cells on a per cell basis and was evaluated by the mean fluorescence intensities (MFI) of CD25 and CD69.

[5] = tested on: MC-38 murine colon adenocarcinoma; assay: In vivo efficacy in MC38 syngeneic tumor model; details: 300 mg/kg/dose oral BID for 21 days
Procedure: All experiments were conducted in compliance with AbbVie's Institutional Animal Care and Use Committee and the National Institutes of Health Guide for Care and Use of Laboratory Animals guidelines in a facility accredited by the Association for the Assessment and Accreditation of Laboratory Animal Care. […] The mice were group-housed 10 per cage. Food and water were available ad libitum. Animals were acclimated to the animal facilities for a period of at least one week prior to commencement of experiments. Animals were tested in the light phase of a 12-hour light:12-hour dark schedule (lights on 0600 hours).
Cells were grown to passage 3 in vitro. […] The injection volume was 0.1 mL and was composed of a 1:1 mixture of S-MEM and Matrigel® (Corning, N.Y., USA). […] Following size match, treatments were initiated on the same day. […] Compound 124 was formulated in 5% DMSO, 5% Tween 80 (Polysorbate 80), 20% PEG-400 and 70% D5W (5% dextrose in water) and was dosed at 10 mL/kg. […] Tumor volume was calculated three times weekly. Measurements of the length (L) and width (W) of the tumor were taken via electronic caliper and the volume was calculated according to the following equation: V=L×W^2/2 using Study Director Version 3.1.399.22 (Studylog Systems, Inc, CA, USA). […] Reported TGIMax is the largest TGI value for any timepoint that tumors volumes were collected for that treatment group.

[6] = +0.5 ng/mL IFNγ, relative to DMSO/with IFNγ control, read-out: % B16F10 growth inhibition (+0.5 ng/mL IFNγ) @ 33 μM
[7] = no IFNγ, read-out: % B16F10 growth inhibition (no IFNγ) @ 33 μM

| SMILES | inhibition at 33 µM [1, 6] | inhibition at 33 µM [1, 7] | IC50 [2] | IC50 [3] | T cell activation and T cell function [4] | tolerability [5] | growth inhibition in the absence of IFNγ ([1]; absence of IFNγ) |
| --- | --- | --- | --- | --- | --- | --- | --- |
| O=C1CN(c2c(O)cc3ccc(CC4CCN(S(=O)(=O)C5CC5)CC4)cc3c2F)S(=O)(=O)N1 [Compound 257, 5-(7-{[1-(cyclopropanesulfonyl)piperidin-4-yl]methyl}-1-fluoro-3-hydroxynaphthalen-2-yl)-1λ^6,2,5-thiadiazolidine-1,1,3-trione] | 25 to 59% | < 25% | 0.01 to 0.1 µM | 0.001 to 0.01 µM | – | – | – |
| CC(C)(O)CCOc1ccc2cc(O)c(N3CC(=O)NS3(=O)=O)c(F)c2c1 [Compound 182, 5-[1-fluoro-3-hydroxy-7-(3-hydroxy-3-methylbutoxy)naphthalen-2-yl]-1λ^6,2,5-thiadiazolidine-1,1,3-trione] | – | – | – | – | increased both T cell activation and T cell function | well tolerated, without obvious adverse health events | – |
| COc1ccc2cc(O)c(N3CC(=O)NS3(=O)=O)c(F)c2c1 [Compound 124, 5-(1-fluoro-3-hydroxy-7-methoxynaphthalen-2-yl)-1λ^6,2,5-thiadiazolidine-1,1,3-trione] | – | – | 0.001 to 0.01 µM | – | increased both T cell activation and T cell function | well tolerated, without obvious adverse health events | no observed growth inhibition |
| CC(C)(O)CCCc1ccc2cc(O)c(N3CC(=O)NS3(=O)=O)c(F)c2c1 [Compound 154, 5-[1-fluoro-3-hydroxy-7-(4-hydroxy-4-methylpentyl)naphthalen-2-yl]-1λ^6,2,5-thiadiazolidine-1,1,3-trione] | 60 to 90% | < 25% | 0.001 to 0.01 µM | < 0.001 µM | – | – | – |
| CP(C)(=O)N1CC=C(c2ccc3cc(O)c(N4CC(=O)NS4(=O)=O)c(F)c3c2)C1 [Compound 168, 5-{7-[1-(dimethylphosphoryl)-2,5-dihydro-1H-pyrrol-3-yl]-1-fluoro-3-hydroxynaphthalen-2-yl}-1λ^6,2,5-thiadiazolidine-1,1,3-trione] | > 90% | < 25% | 0.001 to 0.01 µM | – | – | – | – |
| CC(C)NC(=O)Oc1ccc2cc(O)c(N3CC(=O)NS3(=O)=O)c(F)c2c1 [Compound 103, 8-fluoro-6-hydroxy-7-(1,1,4-trioxo-1λ^6,2,5-thiadiazolidin-2-yl)naphthalen-2-yl propan-2-ylcarbamate] | 60 to 90% | < 25% | 0.01 to 0.1 µM | – | – | – | – |
| O=C1CN(c2c(O)cc3ccc(C4=CCN(S(=O)(=O)C5CC5)C4)cc3c2F)S(=O)(=O)N1 [Compound 113, 5-{7-[1-(cyclopropanesulfonyl)-2,5-dihydro-1H-pyrrol-3-yl]-1-fluoro-3-hydroxynaphthalen-2-yl}-1λ^6,2,5-thiadiazolidine-1,1,3-trione] | – | – | < 0.001 µM | – | increased both T cell activation and T cell function | – | – |
| O=C1CN(c2c(O)cc3ccc(OC(F)F)cc3c2F)S(=O)(=O)N1 [Compound 260, 5-[7-(difluoromethoxy)-1-fluoro-3-hydroxynaphthalen-2-yl]-1λ^6,2,5-thiadiazolidine-1,1,3-trione] | – | – | 0.01 to 0.1 µM | – | increased both T cell activation and T cell function | – | – |
| O=C1CN(c2c(O)cc3cc(O)c(OCCCC(F)F)cc3c2F)S(=O)(=O)N1 [Compound 365, 5-[7-(4,4-difluorobutoxy)-1-fluoro-3,6-dihydroxynaphthalen-2-yl]-1λ^6,2,5-thiadiazolidine-1,1,3-trione] | – | – | < 0.001 µM | < 0.001 µM | – | – | – |
| CC(C)CCOc1cc2c(F)c(N3CC(=O)NS3(=O)=O)c(O)cc2cc1O [Compound 361, 5-[1-fluoro-3,6-dihydroxy-7-(3-methylbutoxy)naphthalen-2-yl]-1λ^6,2,5-thiadiazolidine-1,1,3-trione] | – | – | < 0.001 µM | < 0.001 µM | – | – | – |
| O=C1CN(c2c(O)cc3cc(NCC4CC4)ccc3c2F)S(=O)(=O)N1 [Compound 331, 5-{6-[(cyclopropylmethyl)amino]-1-fluoro-3-hydroxynaphthalen-2-yl}-1λ^6,2,5-thiadiazolidine-1,1,3-trione] | – | – | 0.01 to 0.1 µM | 0.01 to 0.1 µM | – | – | – |
